In ChEMBL document CHEMBL4680201, “Design, synthesis, and pharmacological evaluation of 4- or 6-phenyl-pyrimidine derivatives as novel and selective Janus kinase 3 inhibitors” (Eur J Med Chem, 2020) one finds IC50 data, which are given here for 23 molecules.

For experiment [1], the target named is Tyrosine-protein kinase JAK2 (Homo sapiens, UniProt O60674). The class given is ADME.
The target of experiment [2] is T1, Tyrosine-protein kinase JAK3 (Homo sapiens, UniProt P52333).
T1 sequence (P52333 whole entry): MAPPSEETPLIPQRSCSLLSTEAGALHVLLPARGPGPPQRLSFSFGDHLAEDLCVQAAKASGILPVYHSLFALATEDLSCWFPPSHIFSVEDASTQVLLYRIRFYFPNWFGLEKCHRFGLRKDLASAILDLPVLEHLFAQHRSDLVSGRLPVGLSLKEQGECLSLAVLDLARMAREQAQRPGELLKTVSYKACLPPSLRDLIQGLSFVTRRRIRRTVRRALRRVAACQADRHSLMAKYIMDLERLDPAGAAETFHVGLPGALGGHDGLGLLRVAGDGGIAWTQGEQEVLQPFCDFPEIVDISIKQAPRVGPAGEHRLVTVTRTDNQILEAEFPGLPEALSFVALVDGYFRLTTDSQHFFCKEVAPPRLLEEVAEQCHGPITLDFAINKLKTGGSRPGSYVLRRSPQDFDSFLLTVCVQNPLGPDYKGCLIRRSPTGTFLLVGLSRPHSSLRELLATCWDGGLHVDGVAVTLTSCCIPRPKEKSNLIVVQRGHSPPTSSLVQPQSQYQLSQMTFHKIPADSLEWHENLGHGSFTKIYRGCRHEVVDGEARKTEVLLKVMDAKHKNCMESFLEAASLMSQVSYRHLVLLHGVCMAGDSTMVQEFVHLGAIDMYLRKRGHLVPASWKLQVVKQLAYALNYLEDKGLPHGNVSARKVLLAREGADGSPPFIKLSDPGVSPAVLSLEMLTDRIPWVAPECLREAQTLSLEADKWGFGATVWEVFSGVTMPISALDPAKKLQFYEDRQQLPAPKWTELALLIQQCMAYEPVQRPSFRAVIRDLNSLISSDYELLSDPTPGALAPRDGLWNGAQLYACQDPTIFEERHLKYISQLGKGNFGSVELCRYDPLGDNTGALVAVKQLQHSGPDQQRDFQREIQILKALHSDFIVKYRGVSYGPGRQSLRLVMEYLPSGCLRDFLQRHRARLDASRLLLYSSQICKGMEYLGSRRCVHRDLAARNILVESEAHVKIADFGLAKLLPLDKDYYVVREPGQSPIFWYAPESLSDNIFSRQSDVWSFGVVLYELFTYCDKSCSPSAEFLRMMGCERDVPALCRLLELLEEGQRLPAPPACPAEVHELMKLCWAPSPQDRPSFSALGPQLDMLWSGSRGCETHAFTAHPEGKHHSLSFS

The target in experiment [3] is Tyrosine-protein kinase JAK1 (Homo sapiens, UniProt P23458). Briefly: Inhibition of recombinant human GST-tagged JAK1 cytoplasmic domain (866 to 1154 residues) expressed in baculovirus expression system using TK-substrate-biotin preincubated for 5 mins followed by substrate addition and measured after 30 mins by HTRF assay.
Chain of Tyrosine-protein kinase JAK1 (P23458 whole entry, the tested form may be a part): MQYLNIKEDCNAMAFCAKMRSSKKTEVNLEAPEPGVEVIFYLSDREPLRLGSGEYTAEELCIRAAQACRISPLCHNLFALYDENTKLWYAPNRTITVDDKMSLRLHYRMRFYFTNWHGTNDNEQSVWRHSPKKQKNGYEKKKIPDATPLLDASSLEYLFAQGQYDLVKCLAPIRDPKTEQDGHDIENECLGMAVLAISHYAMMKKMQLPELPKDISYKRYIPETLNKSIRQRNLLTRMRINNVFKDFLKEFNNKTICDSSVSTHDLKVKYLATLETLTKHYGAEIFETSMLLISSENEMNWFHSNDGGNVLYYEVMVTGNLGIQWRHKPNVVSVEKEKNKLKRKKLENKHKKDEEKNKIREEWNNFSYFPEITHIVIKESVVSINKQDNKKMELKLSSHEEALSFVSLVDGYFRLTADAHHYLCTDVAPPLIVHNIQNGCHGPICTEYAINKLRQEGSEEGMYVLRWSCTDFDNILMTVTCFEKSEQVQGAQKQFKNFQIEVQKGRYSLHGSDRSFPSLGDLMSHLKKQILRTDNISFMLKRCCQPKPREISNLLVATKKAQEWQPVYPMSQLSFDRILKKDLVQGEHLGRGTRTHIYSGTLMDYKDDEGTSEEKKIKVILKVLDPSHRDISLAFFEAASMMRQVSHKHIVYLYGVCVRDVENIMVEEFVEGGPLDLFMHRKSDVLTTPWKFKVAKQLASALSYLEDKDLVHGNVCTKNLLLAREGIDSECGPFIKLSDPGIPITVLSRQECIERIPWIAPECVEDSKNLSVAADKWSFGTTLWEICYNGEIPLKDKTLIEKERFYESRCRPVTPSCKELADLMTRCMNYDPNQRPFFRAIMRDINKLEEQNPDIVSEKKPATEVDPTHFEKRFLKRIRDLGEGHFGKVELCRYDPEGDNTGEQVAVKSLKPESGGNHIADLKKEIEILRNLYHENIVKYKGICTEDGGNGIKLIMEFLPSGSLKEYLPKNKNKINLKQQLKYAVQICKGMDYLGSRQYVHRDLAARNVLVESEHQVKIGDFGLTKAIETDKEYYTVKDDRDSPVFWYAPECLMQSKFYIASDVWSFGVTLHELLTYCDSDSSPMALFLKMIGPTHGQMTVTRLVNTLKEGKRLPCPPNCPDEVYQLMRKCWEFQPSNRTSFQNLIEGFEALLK

Chain of Tyrosine-protein kinase JAK2 (O60674 whole entry): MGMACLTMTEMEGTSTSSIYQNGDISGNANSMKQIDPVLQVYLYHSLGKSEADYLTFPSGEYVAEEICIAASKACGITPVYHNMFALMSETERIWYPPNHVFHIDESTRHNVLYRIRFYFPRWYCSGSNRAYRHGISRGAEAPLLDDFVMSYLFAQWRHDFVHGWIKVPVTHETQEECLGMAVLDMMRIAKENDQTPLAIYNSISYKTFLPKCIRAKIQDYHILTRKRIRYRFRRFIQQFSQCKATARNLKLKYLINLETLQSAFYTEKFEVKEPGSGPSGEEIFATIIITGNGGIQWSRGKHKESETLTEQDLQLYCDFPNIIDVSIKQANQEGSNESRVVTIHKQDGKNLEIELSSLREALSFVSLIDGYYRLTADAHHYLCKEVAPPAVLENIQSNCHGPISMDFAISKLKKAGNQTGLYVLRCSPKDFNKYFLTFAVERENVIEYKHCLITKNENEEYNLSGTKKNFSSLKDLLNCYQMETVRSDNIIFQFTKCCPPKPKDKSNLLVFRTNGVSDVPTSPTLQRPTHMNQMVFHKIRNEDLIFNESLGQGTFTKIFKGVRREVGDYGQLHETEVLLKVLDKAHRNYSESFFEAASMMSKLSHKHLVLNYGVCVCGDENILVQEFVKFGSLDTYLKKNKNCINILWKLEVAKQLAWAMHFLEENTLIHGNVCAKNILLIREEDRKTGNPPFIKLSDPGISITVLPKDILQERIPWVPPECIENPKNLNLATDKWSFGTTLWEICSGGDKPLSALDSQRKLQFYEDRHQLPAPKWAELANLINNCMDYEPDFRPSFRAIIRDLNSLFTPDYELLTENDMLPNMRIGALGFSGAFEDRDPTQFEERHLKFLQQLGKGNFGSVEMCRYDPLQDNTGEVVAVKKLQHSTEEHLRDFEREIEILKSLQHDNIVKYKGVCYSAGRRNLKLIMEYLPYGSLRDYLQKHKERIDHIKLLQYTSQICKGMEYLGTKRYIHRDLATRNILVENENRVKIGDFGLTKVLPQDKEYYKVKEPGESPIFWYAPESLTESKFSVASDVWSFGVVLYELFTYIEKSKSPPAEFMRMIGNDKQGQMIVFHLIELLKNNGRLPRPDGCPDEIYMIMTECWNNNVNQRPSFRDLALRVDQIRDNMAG

Usually IC50 stands for the point on the concentration scale where inhibition reaches its midpoint. Consider `C=CC(=O)Nc1cccc(-c2cc(Nc3ccc(N4CCOCC4)cc3)ncn2)c1`, for which the results for the IC50 in experiment [1], in experiment [2] and in experiment [3] were 2040 nM, 183 nM and 1110 nM, respectively.
In the case of `Cn1cc(Nc2cc(-c3cccc(NC(=O)CC#N)c3)ncn2)cn1`, the IC50 in experiment [2] stood at 145 nM; in experiment [3] it was 854 nM.
For the molecule `C/C=C/C(=O)Nc1cccc(-c2cc(Nc3cnn(CCO)c3)ncn2)c1`, the IC50 in experiment [1] came to 2810 nM; in experiment [2], 221 nM; in experiment [3], 2440 nM.
Taken in the same sequence, the figures for `C/C=C/C(=O)Nc1cccc(-c2cc(Nc3cnn(CCN(C)C)c3)ncn2)c1` were 1890 nM, 67 nM and 899 nM.
Turning to `C/C=C/C(=O)Nc1ccc(-c2cc(Nc3cnn(CCOC)c3)ncn2)cc1`, the IC50 in experiment [2] is 76 nM; in experiment [3] it was 2760 nM.
As for `C=CC(=O)NCC(=O)Nc1cccc(-c2cc(Nc3ccc(N4CCOCC4)cc3)ncn2)c1`, the results for the half-maximal inhibitory concentration (IC50) in experiment [1], in experiment [2] and in experiment [3] were above 3000 nM, 103 nM and 354 nM, respectively.
Turning to `N#CCC(=O)Nc1cccc(-c2cc(Nc3cnn(CCO)c3)ncn2)c1`, the IC50 in experiment [1] was found to be 1140 nM; in experiment [2], 243 nM; in experiment [3] it was 1540 nM.
Consider `C=CC(=O)Nc1cccc(-c2cc(Nc3cnn(CCN(C)C)c3)ncn2)c1`, for which the values for the IC50 in experiment [1], in experiment [2] and in experiment [3] were above 3000 nM, 309 nM and 731 nM, respectively.
On to `C=CC(=O)NCC(=O)Nc1cccc(-c2cc(Nc3cnn(CCOC)c3)ncn2)c1`, for which the 50% inhibitory concentration (IC50) was 1540 nM in experiment [1], 66 nM in experiment [2] and 56 nM in experiment [3].
As for `C/C=C/C(=O)Nc1cccc(-c2cc(Nc3cnn(CC(=O)NC)c3)ncn2)c1`, the IC50 in experiment [1] was 1110 nM; in experiment [2], 92 nM.
With `N#CCC(=O)NCC(=O)Nc1cccc(-c2cc(Nc3ccc(N4CCOCC4)cc3)ncn2)c1`, the IC50 in experiment [1] amounted to 309 nM; in experiment [2], 253 nM; in experiment [3], 1430 nM.
For the molecule `C/C=C/C(=O)NCC(=O)Nc1cccc(-c2cc(Nc3cnn(CCOC)c3)ncn2)c1`, the IC50 in experiment [1] turned out to be 886 nM; in experiment [2] it was 108 nM; in experiment [3] it was 45 nM.
`C=CC(=O)Nc1cccc(-c2cc(Nc3cnn(CC(=O)NC)c3)ncn2)c1`: the IC50 in experiment [2] was 138 nM; in experiment [3], 840 nM.
As for `N#CCC(=O)Nc1ccc(-c2cc(Nc3ccc(N4CCOCC4)cc3)ncn2)cc1`, the IC50 in experiment [2] is 78 nM; in experiment [3], 528 nM.
With `Cn1cc(Nc2cc(-c3cccc(NC(=O)CNC(=O)CC#N)c3)ncn2)cn1`, the IC50 in experiment [1] stood at 69 nM; in experiment [2], 95 nM; in experiment [3], 89 nM.
In the case of `C/C=C/C(=O)Nc1cccc(-c2cc(Nc3cnn(C)c3)ncn2)c1`, the IC50 in experiment [1] is 2760 nM; in experiment [2] it was 567 nM; in experiment [3], 1520 nM.
`N#CCC(=O)Nc1cccc(-c2cc(Nc3ccc(N4CCOCC4)cc3)ncn2)c1`: the IC50 in experiment [1] was 734 nM; in experiment [2], 170 nM; in experiment [3], 1860 nM.
Turning to `C=CC(=O)Nc1cccc(-c2cc(Nc3cnn(CCO)c3)ncn2)c1`, the values for the concentration for half-maximal inhibition (IC50) in experiment [1] and in experiment [2] were 2590 nM and 599 nM, respectively.
`CNC(=O)Cn1cc(Nc2cc(-c3cccc(NC(=O)CNC(=O)CC#N)c3)ncn2)cn1`: the half-maximal inhibitory concentration (IC50) in experiment [1] is 2730 nM; in experiment [2], 127 nM; in experiment [3], above 3000 nM.
Turning to `C/C=C/C(=O)NCC(=O)Nc1cccc(-c2cc(Nc3ccc(N4CCOCC4)cc3)ncn2)c1`, the IC50 in experiment [2] turned out to be 375 nM; in experiment [3], 586 nM.
`C/C=C/C(=O)Nc1ccc(-c2cc(Nc3ccc(N4CCOCC4)cc3)ncn2)cc1`: the IC50 in experiment [1] was determined as 2150 nM; in experiment [2], 99 nM; in experiment [3], 321 nM.
As to `C=CC(=O)Nc1cccc(-c2cc(Nc3cnn(C)c3)ncn2)c1`, the IC50 in experiment [1] was determined as 2240 nM; in experiment [2], 303 nM; in experiment [3], 657 nM.
Taken in the same sequence, the figures for `C=CC(=O)Nc1cccc(-c2cc(Nc3cnn(CCOC)c3)ncn2)c1` were 2850 nM, 101 nM and 568 nM.
